Data: ChEMBL document CHEMBL4739717, “Methods of treating cartilage disorders through inhibition of clk and dyrk” (2020)

How the values were obtained:
[1] = target: Dual specificity protein kinase CLK3 (Homo sapiens, UniProt P49761); experiment: Inhibition of recombinant CLK3 (unknown origin) using Ser/Thr 18 peptide as substrate incubated for 1 hr in presence of ATP by FRET assay
[2] = target: Dual specificity tyrosine-phosphorylation-regulated kinase 1A (Homo sapiens, UniProt Q13627); experiment: Inhibition of recombinant DYRK1A (unknown origin) using Ser/Thr 18 peptide as substrate incubated for 1 hr in presence of ATP by FRET assay
[3] = Induction of chondrogenesis in human MSC assessed as incubated for 6 days by rhodamine B and Nile red staining based imaging analysis; assay type: functional; conditions: bmmsc
[4] = Induction of chondrogenesis in human MSC assessed as maximum activity at 300 nM incubated for 6 days by rhodamine B and Nile red staining based imaging analysis relative to control; assay type: functional; conditions: BMMSC, 144 h, time 6 day
[5] = Effect on Wnt signaling pathway in human SW480 cells harbouring TCF/LEF luciferase reporter gene and SP5-Luc reporter gene incubated for 36 to 48 hrs by luminescence assay; assay type: cell-based
[6] = Induction of chondrogenesis in human MSC assessed as maximum activity at 100 nM incubated for 6 days by rhodamine B and Nile red staining based imaging analysis relative to control; assay type: functional; conditions: BMMSC, 144 h, time 6 day
[7] = Inhibition of IL1-beta induced MMP3 expression levels in human chondrocytes assessed as MMP3 levels incubated for 2hrs followed by IL1-beta stimulation and measured after overnight incubation by LANCE assay; assay type: functional, cell-based; conditions: Chondrocyte
[8] = Induction of chondrogenesis in human MSC assessed as maximum activity at 30 nM incubated for 6 days by rhodamine B and Nile red staining based imaging analysis relative to control; assay type: functional; conditions: BMMSC, 144 h, time 6 day
[9] = Induction of chondrogenesis in human MSC assessed as maximum activity at 10 nM incubated for 6 days by rhodamine B and Nile red staining based imaging analysis relative to control; assay type: functional; conditions: BMMSC, 144 h, time 6 day
[10] = Inhibition of IL1-beta induced MMP3 expression levels in human chondrocytes assessed as MMP3 levels incubated for 2hrs followed by IL1-beta stimulation and measured after overnight incubation by LANCE assay relative to control; assay type: functional, Chondrocyte

Chain of Dual specificity protein kinase CLK3 (P49761 whole entry): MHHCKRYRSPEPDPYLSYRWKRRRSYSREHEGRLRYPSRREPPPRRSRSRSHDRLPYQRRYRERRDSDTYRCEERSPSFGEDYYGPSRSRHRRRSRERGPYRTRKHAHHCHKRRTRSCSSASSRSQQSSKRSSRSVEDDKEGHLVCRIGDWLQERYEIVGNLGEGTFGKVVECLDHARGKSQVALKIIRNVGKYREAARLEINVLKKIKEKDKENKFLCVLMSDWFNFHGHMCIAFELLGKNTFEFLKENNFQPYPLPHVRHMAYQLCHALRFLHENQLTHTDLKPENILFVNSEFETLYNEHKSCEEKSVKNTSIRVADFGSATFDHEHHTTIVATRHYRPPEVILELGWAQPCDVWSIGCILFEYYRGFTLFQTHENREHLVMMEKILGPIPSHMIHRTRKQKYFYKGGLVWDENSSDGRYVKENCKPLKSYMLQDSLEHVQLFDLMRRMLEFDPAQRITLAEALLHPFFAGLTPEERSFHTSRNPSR

Row | SMILES | EC50 [1] | EC50 [2] | EC50 [3] | Emax at 0.3 µM [4] | EC50 [5] | Emax at 0.1 µM [6] | EC50 [7] | Emax at 0.03 µM [8] | Emax at 0.01 µM [9] | Imax [10]
1 | Cc1ccncc1-c1ccc2[nH]nc(-c3cc4c(-c5ccncc5)ccnc4[nH]3)c2n1 | > 10000 nM | 66 nM | 300 nM | 56.5% | > 10000 nM |  |  |  |  | 
2 | c1cc(-c2cncc3[nH]c(-c4n[nH]c5ccc(-c6cncc(CNCC7CCCC7)c6)cc45)nc23)cs1 | > 10000 nM | 12 nM | 100 nM |  | 58 nM | 167% |  |  |  | 
3 | O=C(Nc1cccnc1)Nc1c[nH]nc1C(=O)Nc1ccc(C(F)(F)F)nc1 | > 10000 nM | 22 nM |  |  | 679 nM |  | 8.7 nM |  |  | 
4 | Nc1cncc(-c2cc3c(-c4cc5c(-c6ccncc6)cncc5[nH]4)n[nH]c3cn2)c1 | > 10000 nM | 3 nM | 10 nM |  | > 10000 nM |  |  | 52% |  | 
5 | CN1CCN(c2ccnc3[nH]c(-c4n[nH]c5ccc(-c6cncc(NC(=O)c7ccccc7)c6)nc45)cc23)CC1 | 258 nM | 29 nM | 10 nM |  | 6100 nM |  |  |  | 61.8% | 
6 | FC1(F)CCN(Cc2cncc(-c3ccc4[nH]nc(-c5cc6cccnc6[nH]5)c4n3)c2)C1 | 370 nM | 11 nM | 100 nM |  | 104 nM |  |  | 134% |  | 
7 | O=C(Nc1cccnc1)c1n[nH]cc1C#Cc1cncc(OC2CCNCC2)c1 | > 10000 nM | 24 nM |  |  | 1270 nM |  | 0.2 nM |  |  | 
8 | Cn1cc(-c2ccc3cnc(NC(=O)c4ccnc(OC5CNC5)c4)cc3c2)cn1 |  |  |  |  |  |  | 154 nM |  |  | 100%
9 | COc1cncc(-c2ccc3[nH]nc(-c4nc5c(N6CCCCC6)ccnc5[nH]4)c3n2)c1 | > 10000 nM | > 10000 nM |  |  | > 10000 nM |  | 123 nM |  |  | 
10 | c1cc(-c2ccnc3[nH]c(-c4n[nH]c5ccc(-c6cncc(CNCC7CCCC7)c6)nc45)cc23)ccn1 | > 10000 nM | 40 nM | 100 nM |  | > 10000 nM | 67.2% |  |  |  | 
11 | CN1CC2CCC(C1)N2C(=O)Nc1cc2cc(-c3cnn(C)c3)ccc2cn1 | > 10000 nM |  |  |  | > 10000 nM |  |  |  |  | 
12 | O=C(Nc1cncc(-c2cc3c(-c4cc5c(-c6cccc(F)c6)ccnc5[nH]4)n[nH]c3cn2)c1)C1CC1 | > 10000 nM | > 10000 nM |  |  | 9.7 nM |  | 298 nM |  |  | 
13 | c1cc(-c2ccnc3[nH]c(-c4n[nH]c5ccc(-c6cncc(OCCN7CCCC7)c6)nc45)cc23)ccn1 | > 10000 nM | 28 nM |  | 39.6% | > 10000 nM |  |  |  |  | 
14 | O=C(Nc1cc2cc(-c3cncs3)ccc2cn1)C1(F)CCCCC1 | > 10000 nM | 8 nM |  |  | > 10000 nM |  | 3000 nM |  |  | 
15 | Nc1cncc(-c2cnc3[nH]nc(-c4cc5c(-c6ccncc6)ccnc5[nH]4)c3c2)c1 | > 10000 nM | 19 nM |  |  | > 10000 nM |  |  |  |  | 
16 | CN(C)CCOc1cncc(-c2cc3c(-c4cc5c(-c6ccc(F)cc6)nccc5[nH]4)n[nH]c3cn2)c1 | > 10000 nM | 43 nM | 900 nM | 113% | 3000 nM |  |  |  |  | 
17 | Nc1cncc(-c2cc3c(-c4cc5c(-c6ccccc6F)ccnc5[nH]4)n[nH]c3cn2)c1 | > 10000 nM | 42 nM |  |  | > 10000 nM |  |  |  | 32.4% | 
18 | COc1cccc(-c2cncc3[nH]c(-c4n[nH]c5ccc(-c6cncc(NC(=O)C7CCCCC7)c6)nc45)nc23)c1 | > 10000 nM | > 10000 nM |  |  | > 10000 nM |  | 3000 nM |  |  | 
19 | CN(C)c1cncc(-c2cnc3[nH]nc(-c4cc5c(-c6ccncc6)cncc5[nH]4)c3c2)c1 | > 10000 nM | 14 nM | 10 nM |  | > 10000 nM |  |  | 191% |  | 
20 | CC(C)Nc1cncc(-c2cnc3[nH]nc(-c4cc5c(-c6ccccc6F)ccnc5[nH]4)c3c2)c1 | > 10000 nM | 35 nM | 10 nM |  | > 10000 nM |  |  |  | 81.6% | 
21 | Fc1ccc(-c2cccc3[nH]c(-c4n[nH]c5ncc(-c6cncc(CN7CCCCC7)c6)cc45)cc23)cc1 | > 10000 nM | > 10000 nM |  |  | 3660 nM |  | 46.1 nM |  |  | 
22 | O=C(Nc1c[nH]nc1C(=O)Nc1ccc(N2CCC(F)(F)C2)nc1)c1cncc(OC2CCNCC2)c1 |  | 10 nM |  | 75.2% | 2220 nM |  | 280 nM |  |  | 
23 | CC(C)N1CCC(n2cc(C(=O)Nc3cc4cc(-c5cn(C)nn5)ccc4cn3)cn2)CC1 |  |  |  |  | 32.7 nM |  | 492 nM |  |  | 91%
24 | O=C(Nc1ccc(OCCN2CCCC2)nc1)c1n[nH]cc1C#Cc1cccnc1 | > 10000 nM | 24 nM |  |  | 409 nM |  |  | 68.8% |  | 
25 | Cn1ncc(-c2ccc3cnc(NC(=O)c4ccnc(N5CCOCC5)c4)cc3c2)c1CN1CCOCC1 |  |  |  |  |  |  | 3000 nM |  |  | 70%

Row | SMILES | EC50 [1] | EC50 [2] | EC50 [3] | Emax at 0.3 µM [4] | EC50 [5] | Emax at 0.1 µM [6] | EC50 [7] | Emax at 0.03 µM [8] | Emax at 0.01 µM [9] | Imax [10]
26 | COc1cccc(-c2cncc3[nH]c(-c4n[nH]c5ccc(-c6cn[nH]c6)nc45)nc23)c1 | > 10000 nM | > 10000 nM |  |  | > 10000 nM |  |  |  |  | 
27 | CN(C)C1CN(c2ncc(C(=O)Nc3cc4cc(-c5cnn(C)c5)ccc4cn3)s2)C1 |  |  |  |  | 1320 nM |  | 71.4 nM |  |  | 0%
28 | Fc1ccc(-c2cccc3[nH]c(-c4n[nH]c5ccc(-c6cncnc6)nc45)nc23)cc1 | > 10000 nM | > 10000 nM |  |  | > 10000 nM |  | 3000 nM |  |  | 
29 | COc1cncc(C#Cc2c[nH]nc2C(=O)Nc2ccc(N3CCNCC3)nc2)c1 | > 10000 nM | 11 nM |  |  | > 10000 nM |  |  |  | 74.7% | 
30 | CN(C)CCOc1cc(C(=O)Nc2cc3cc(-c4cnn(C)c4)ccc3cn2)ccn1 | 30 nM |  |  |  |  |  | 1010 nM |  |  | 
31 | O=C(Nc1cncc(-c2cnc3[nH]nc(-c4cc5cccnc5[nH]4)c3c2)c1)c1ccccc1 | > 10000 nM | 14 nM |  |  | > 10000 nM |  |  |  | 21.8% | 
32 | O=C(Cc1ccccc1)Nc1cncc(-c2ccc3[nH]nc(-c4nc5c(-c6ccncc6)ccnc5[nH]4)c3n2)c1 | > 10000 nM | > 10000 nM |  |  | > 10000 nM |  |  |  |  | 
33 | Fc1cccc(-c2cncc3[nH]c(-c4n[nH]c5ccc(-c6cnccn6)nc45)nc23)c1 | > 10000 nM | > 10000 nM |  |  | > 10000 nM |  | 3000 nM |  |  | 
34 | CCCC(=O)Nc1cncc(-c2ccc3[nH]nc(-c4cc5c(-c6ccncc6)cncc5[nH]4)c3c2)c1 | 460 nM | 6 nM | 100 nM |  | > 10000 nM | 124% |  |  |  | 
35 | CN(C)CCNc1cc(F)cc(-c2cccc3[nH]c(-c4n[nH]c5ncc(-c6ccncc6)cc45)cc23)c1 | > 10000 nM | > 10000 nM |  |  | 6070 nM |  | 4 nM |  |  | 
36 | CC(C)N1CCC(c2nc(C(=O)Nc3cc4cc(-c5cnn(C)c5)ccc4cn3)co2)CC1 | 20 nM |  |  |  | 80 nM |  | 57.3 nM |  |  | 
37 | Cc1n[nH]c2cc(F)c(-c3cncc(CN4CCCCC4)n3)cc12 | 3380 nM | 60 nM |  |  | 2440 nM |  | 3000 nM |  |  | 
38 | O=C(Nc1cc2cc(-c3cnco3)cnc2cn1)[C@H]1CC[C@H](CO)CC1 | > 10000 nM |  |  |  | > 10000 nM |  |  |  |  | 
39 | CC(F)(F)CN1CCC(C(=O)Nc2cc3cc(-c4cnco4)cnc3cn2)CC1 | > 10000 nM |  |  |  | > 10000 nM |  | 3000 nM |  |  | 
40 | CCC(=O)Nc1cncc(-c2cc3c(-c4cc5c(N6CCN(C)CC6)nccc5[nH]4)n[nH]c3cn2)c1 |  | 3 nM | 30 nM | 70% | > 10000 nM |  |  |  |  | 
41 | Cn1cc(-c2ccc3cnc(NC(=O)c4ccnc(N5CC6CC5CN6)c4)cc3c2)cn1 (stereo not given) |  |  |  |  |  |  | 3000 nM |  |  | 69%
42 | O=C(Nc1cc2cc(-c3cncc(CN4CCC(O)CC4)c3)ccc2cn1)c1ccc(F)cc1 |  |  |  |  | 382 nM |  | 2.9 nM |  |  | 3.7%
43 | c1cc(-c2ccnc3[nH]c(-c4n[nH]c5ccc(-c6cncnc6)cc45)cc23)ccn1 | > 10000 nM | 68 nM |  |  | > 10000 nM | 17.3% |  |  |  | 
44 | CN1CCN(c2nccc3[nH]c(-c4n[nH]c5ccc(-c6cncc(CN7CCCCC7)c6)nc45)cc23)CC1 |  | 15 nM | 10 nM | 70.8% | 4160 nM |  |  |  |  | 
45 | Cn1cc(-c2cnc3[nH]nc(-c4cc5cccnc5[nH]4)c3c2)cn1 | > 10000 nM | 8 nM | 300 nM | 51.7% | > 10000 nM |  |  |  |  | 
46 | CN1CCN(c2ccnc3[nH]c(-c4n[nH]c5ccc(-c6cn[nH]c6)nc45)cc23)CC1 | > 10000 nM | 49 nM | 300 nM | 60.1% | > 10000 nM |  |  |  |  | 
47 | O=C(Nc1cncc(-c2cnc3[nH]nc(-c4nc5c(-c6cccnc6)cncc5[nH]4)c3c2)c1)C1CCC1 |  | 11 nM | 300 nM | 130% | 35.4 nM |  |  |  |  | 
48 | O=C(Cc1ccccc1)Nc1cncc(-c2ccc3[nH]nc(-c4cc5cnccc5[nH]4)c3c2)c1 | 180 nM | 8 nM | 10 nM |  | 1760 nM |  |  |  | 119% | 
49 | O=C(Nc1c[nH]nc1C(=O)Nc1cncc(-c2cccc(F)c2)c1)c1cncc(F)c1 | > 10000 nM | 63 nM |  |  | 479 nM | 81.5% | 0.4 nM |  |  | 
